Test results as given in patent US12319939B2, “Carbonyl reductase mutant and its application” (priority 2023, dated 2025).

Columns and labels:
[1] = biological target: Candida orthopsilosis Co 90-125 carbonyl reductase CoCR 13 (Genbank XP_003867714.1), wild type (WT), SEQ ID NO: 1 (Lodderomyces orthopsilosis, UniProt H8WZT2); experiment: Enzyme kinetic parameters (NADPH consumption at 340 nm), initial carbonyl reductase; type: biochemical
From the text: On this basis, serine (Ser) at position 126 is replaced with alanine (Ala), to obtain the triple mutant R129L/D210T/S126A (amino acid sequence as shown in SEQ ID NO: 5).
Through gene mining, the carbonyl reductase gene with Genbank ID XP_003867714.1 was screened from the NCBI database. The open reading frame of this gene is 1005 bp long, the carbonyl reductase encoded by it consists of 334 amino acids, and its amino acid sequence (334aa) is:
(§1) One enzyme activity unit U is defined as the amount of enzyme required to consume 1 μmol NADPH within 1 minute.
(§2) The substrate concentration was set to be 0.1-10 mM, and the rest was the same enzyme activity determination system and reaction conditions as described above.

[2] = biological target: Candida orthopsilosis Co 90-125 carbonyl reductase CoCR 13 variant R129L/D210T, SEQ ID NO: 3 (Lodderomyces orthopsilosis, UniProt H8WZT2, D210T/R129L); experiment: Enzyme kinetic parameters (NADPH consumption at 340 nm), double mutant; type: biochemical
From the text: (§3) The present disclosure starts with the substrate channel of the carbonyl reductase protein structure of Candida orthopsilosis Co 90-125 (amino acid sequence as shown in SEQ ID NO: 1) with ID XP 003867714.1 in Genbank, analyzes the entrance segment and internal structural characteristics of the substrate channel, and performs iterative saturation mutagenesisit through semi-rational design, so as to determine that the key factor affecting the initial enzymatic properties of carbonyl reductase is the amino acids at positions R129, D210 and S126. […] On this basis, serine (Ser) at position 126 is replaced with alanine (Ala), to obtain the triple mutant R129L/D210T/S126A (amino acid sequence as shown in SEQ ID NO: 5).
(§4) The double mutation R129L/D210T changed the codons 385-387 of the carbonyl reductase gene sequence from CGT to CTG, thereby replacing the 129th position of the amino acid sequence from arginine (R) to leucine (L); changed the codons 628-630th position from GAT to ACC, thereby the 210th position of the amino acid sequence from aspartic acid (D) to threonine (T), to obtain an enzyme mutant, wherein its amino acid sequence is shown in SEQ ID NO: 3, and the nucleotide sequence of the coding gene is shown in SEQ ID NO: 4.
as §1, §2

[3] = biological target: Candida orthopsilosis Co 90-125 carbonyl reductase CoCR 13 variant R129L/D210T/S126A, SEQ ID NO: 5 (Lodderomyces orthopsilosis, UniProt H8WZT2, D210T/R129L/S126A); experiment: Enzyme kinetic parameters (NADPH consumption at 340 nm), triple mutant; type: biochemical
From the text: as §3
(§5) While the triple mutation changed from AGC to GCG at codons 376-378 of the carbonyl reductase double mutant gene sequence, thereby replacing serine(S) with alanine (A) at position 126 of the amino acid sequence, to obtain a triple mutant, wherein its amino acid sequence is shown in SEQ ID NO: 5, and the nucleotide sequence of the coding gene is shown in SEQ ID NO: 6.
as §1, §2

CCOC(=O)CCCCC(=O)CCCl [4] = experiment: Enzyme kinetic parameters (NADPH consumption at 340 nm), double mutant; type: biochemical, Candida orthopsilosis Co 90-125; details: other: R129L/D210T, substrate 0.1-10 mM, PB pH 7.0, 30° C.
From the text: as §3, §4, §1, §2

CCOC(=O)CCCCC(=O)CCCl [5] = experiment: Enzyme kinetic parameters (NADPH consumption at 340 nm), triple mutant; type: biochemical, Candida orthopsilosis Co 90-125; details: other: R129L/D210T/S126A, substrate 0.1-10 mM, PB pH 7.0, 30° C.
From the text: as §3, §5, §1, §2

[6] = WT, substrate 0.1-10 mM, NADPH, PB pH 7.0, 30° C.
[7] = R129L/D210T, substrate 0.1-10 mM, NADPH, PB pH 7.0, 30° C.
[8] = R129L/D210T/S126A, substrate 0.1-10 mM, NADPH, PB pH 7.0, 30° C.

CCOC(=O)CCCCC(=O)CCCl [8-chloro-6-oxooctanoic acid ethyl ester]
Relative catalytic efficiency ([1]; WT as reference (1.00)): 1.00 | Catalytic efficiency (kcat/Km) [1, 6]: 920 M⁻¹ s⁻¹ | Number of conversions (kcat) [1, 6]: 4.7 ± 0.33 s⁻¹ | Relative catalytic efficiency ([2]; R129L/D210T relative to WT): 31.65 | Catalytic efficiency (kcat/Km) [2, 7]: 29120 M⁻¹ s⁻¹ | Number of conversions (kcat) [2, 7]: 50.60 ± 1.49 s⁻¹ | catalytic efficiency increase compared to the initial carbonyl reductase ([2]; double mutant vs initial carbonyl reductase): 31.65 times | Relative catalytic efficiency ([3]; R129L/D210T/S126A relative to WT): 93.42 | Catalytic efficiency (kcat/Km) [3, 8]: 85950 M⁻¹ s⁻¹ | Number of conversions (kcat) [3, 8]: 69.46 ± 2.50 s⁻¹ | catalytic efficiency increase compared to the initial carbonyl reductase ([3]; triple mutant vs initial carbonyl reductase): 93.42 times

Candida orthopsilosis Co 90-125 carbonyl reductase CoCR 13 variant R129L/D210T, SEQ ID NO: 3 (Lodderomyces orthopsilosis Co 90-125; D210T/R129L)
Km (CCOC(=O)CCCCC(=O)CCCl [4]): 1740 ± 160 µM

Candida orthopsilosis Co 90-125 carbonyl reductase CoCR 13 variant R129L/D210T/S126A, SEQ ID NO: 5 (Lodderomyces orthopsilosis Co 90-125; D210T/R129L/S126A)
Km (CCOC(=O)CCCCC(=O)CCCl [5]): 810 ± 110 µM
